# Measurements from US9890133B2 (priority 2011, dated 2018).
# Experiment: in vitro
# Conditions: human
Compound,CC50 (Picorana CC50) [µg/mL],CC50 [µg/mL]
"CC(C)c1ccc2c(c1)OC1(O)c3ccc(N4CCOCC4)cc3C(=O)C21O (stereo not drawn) [Example 140, 4b,9b-Dihydroxy-7-isopropyl-2-morpholinyl-4bH-benzo[d]indeno[1,2-b]furan-10(9bH)-one]",2.08,
"CC(C)c1ccc2c(c1)OC1(O)c3cccc(N)c3C(=O)C21NC(=O)c1sc2cc(F)ccc2c1Cl (stereo not drawn) [Example 269, N-(1-Amino-4b-hydroxy-7-isopropyl-10-oxo-9b,10-dihydro-4bH-indeno[1,2-b]benzofuran-9b-yl)-3-chloro-6-fluorobenzo[b]thiophene-2-carboxamide]",,> 10
CC(C)c1ccc2c(c1)OC1(O)c3ccccc3C(=O)C21NC(=O)c1cnn(-c2ccccc2)c1C(F)(F)F (stereo not drawn) [Example 211],,> 10
"CNC(=O)N[C@@]12C(=O)c3ccccc3[C@]1(O)Oc1cc(C(C)C)ccc12 [Example 101, 1-((4bS,9bS)-4b-Hydroxy-7-isopropyl-10-oxo-9b,10-dihydro-4bH-indeno[1,2-b]benzofuran-9b-yl)-3-methylurea]",> 50,
"CC(=O)NC12C(=O)c3ccccc3C1(OC(=O)Oc1ccccc1)Oc1cc(C(C)C)ccc12 (stereo not drawn) [Example 121, Carbonic acid 9b-acetylamino-7-isopropyl-10-oxo-9b,10-dihydro-5-oxa-indeno[2,1-a]inden-4b-yl ester phenyl ester]",> 50,
"CC(C)c1ccc2c(c1)OC1(O)c3ccccc3C(=O)C21N=C=O (stereo not drawn) [Example 69, 4b-Hydroxy-9b-isocyanato-7-isopropyl-4b,9b-dihydro-5-oxa-indeno[2,1-a]-inden-10-one]",70,
CCCCCCCC(=O)NC12C(=O)c3ccccc3C1(O)Oc1cc(C(C)C)ccc12 (stereo not drawn) [Example 90],34,
"CONC(=O)N[C@@]12C(=O)c3ccccc3[C@]1(O)Oc1cc(C(C)C)ccc12 [Example 103, 1-((4bS,9bS)-4b-Hydroxy-7-isopropyl-10-oxo-9b,10-dihydro-4bH-indeno[1,2-b]benzofuran-9b-yl)-3-methoxyurea]",> 50,
"CCC(=O)N[C@@]12C(=O)c3c(N)cccc3[C@]1(OC(=O)CC)Oc1cc(C(C)C)ccc12 [Example 94, (4bR,9bS)-1-Amino-7-isopropyl-10-oxo-9b-propionamido-9b,10-dihydro-4bH-indeno[1,2-b]benzofuran-4b-yl propionate]",42.4,58.1
"CNC(=O)OC12Oc3cc(C(C)C)ccc3C1(NC(C)=O)C(=O)c1ccccc12 (stereo not drawn) [Example 118, 9b-Acetamido-7-isopropyl-10-oxo-9b,10-dihydro-4bH-benzo[d]indeno[1,2-b]furan-4b-yl methylcarbamate]",> 50,
CC(C)c1ccc2c(c1)OC1(O)c3cccc(N)c3C(=O)C21NC(=O)c1sc2ccccc2c1Br (stereo not drawn) [Example 264],,> 10
"CC(C)c1cc(C(C)C)c2c(c1)C1(N)C(=O)c3ccccc3C1(O)O2 (stereo not drawn) [Example 68, 9b-Amino-4b-hydroxy-6,8-diisopropyl-4b,9b-dihydro-5-oxa-indeno[2,1-a]inden-10-one]",8.94,
"CC(C)c1cc(C(C)C)c2c(c1)C1(O)C(=O)c3c(N)cccc3C1(O)O2 (stereo not drawn) [Example 157, 1-Amino-4b,9b-dihydroxy-6,8-diisopropyl-4bH-benzo[d]indeno[1,2-b]furan-10(9bH)-one]",> 100,28.5
"CCCCCCC(=O)NC12C(=O)c3ccccc3C1(OC(=O)CCCCCC)Oc1cc(C(C)C)ccc12 (stereo not drawn) [Example 92, Heptanoic acid 9b-heptanoylamino-7-isopropyl-10-oxo-9b,10-dihydro-5-oxa-indeno[2,1-a]inden-4b-yl ester]",> 50,
"CC(C)c1ccc2c(c1)OC1(OC(=S)Nc3ccccc3)c3ccccc3C(=O)C21N=[N+]=[N-] (stereo not drawn) [Example 122, Phenyl-thiocarbamic acid O-(9b-azido-7-isopropyl-10-oxo-9b,10-dihydro-5-oxa-indeno[2,1-a]inden-4b-yl) ester]",12,
"Cc1ccc(C(=O)NC23C(=O)c4c(N)cccc4C2(O)Oc2cc(C(C)C)ccc23)s1 (stereo not drawn) [Example 216, N-(1-Amino-4b-hydroxy-7-isopropyl-10-oxo-9b,10-dihydro-4bH-indeno[1,2-b]benzofuran-9b-yl)-5-methylthiophene-2-carboxamide]",4.75,9.69
"CC(C)c1ccc2c(c1)OC1(O)c3ccccc3C(=O)C21NC(=O)[C@@H](Cc1ccccc1)NC(=O)OC(C)(C)C (stereo partly drawn) [Example 185, tert-Butyl(2R)-1-(4b-hydroxy-7-isopropyl-10-oxo-9b,10-dihydro-4bH-benzo[d]indeno[1,2-b]furan-9b-ylamino)-1-oxo-3-phenylpropan-2-ylcarbamate]",7.18,> 10
"CC(C)c1ccc2c(c1)OC1(O)c3cccc(N)c3C(=O)C21NC(=O)C1c2ccccc2Oc2ccccc21 (stereo not drawn) [Example 237, N-(1-Amino-4b-hydroxy-7-isopropyl-10-oxo-9b,10-dihydro-4bH-benzo[d]indeno[1,2-b]furan-9b-yl)-9H-xanthene-9-carboxamide]",6.27,> 10

Compound,CC50 (Picorana CC50) [µg/mL],CC50 [µg/mL]
"CC(C)C(=O)NC12C(=O)c3c(N)cccc3C1(O)Oc1cc(C(C)C)ccc12 (stereo not drawn) [Example 77, N-(1-Amino-4b-hydroxy-7-isopropyl-10-oxo-4b,10-dihydro-5-oxa-indeno[2,1-a]inden-9b-yl)-isobutylamide]",> 50,53.9
"CC(C)c1ccc2c(c1)OC1(O)c3cccc(NCc4ccccc4)c3C(=O)C21O (stereo not drawn) [Example 132, 1-(Benzylamino)-4b,9b-dihydroxy-7-isopropyl-4bH-indeno[1,2-b]benzofuran-10(9bH)-one]",0.72,
"CCCCCCC(=O)NC12C(=O)c3c(N)cccc3C1(OC(=O)CCCCCC)Oc1cc(C(C)C)ccc12 (stereo not drawn) [Example 99, 1-Amino-9b-heptanamido-7-isopropyl-10-oxo-9b,10-dihydro-4bH-benzo[d]indeno[1,2-b]furan-4b-yl heptanoate]",> 50,7.7
"COc1cc2c(cc1OC)C1(O)C(=O)c3ccccc3C1(O)N2C(=O)C(C)C (stereo not drawn) [Example 138, 4b,9b-Dihydroxy-5-isobutyryl-7,8-dimethoxy-5,9b-dihydro-4bH-indeno[1,2-b]indol-10-one]",38.8,
"CC(C)c1ccc2c(c1)OC1(O)c3cccc(N)c3C(=O)C21NS(=O)(=O)C(F)(F)F (stereo not drawn) [Example 176, N-(1-Amino-4b-hydroxy-7-isopropyl-10-oxo-9b,10-dihydro-4bH-benzo[d]indeno[1,2-b]furan-9b-yl)-1,1,1-trifluoromethanesulfonamide]",,> 10
"CO[C@@]12Oc3cc(C(C)C)ccc3[C@]1(NC(N)=O)C(=O)c1ccccc12 [Example 100, 1-((4bS,9bS)-7-Isopropyl-4b-methoxy-10-oxo-9b,10-dihydro-4bH-indeno[1,2-b]benzofuran-9b-yl)urea]",40.6,
"CC(C)c1ccc2c(c1)OC1(O)c3ccccc3/C(=N\N)C21O (stereo not drawn) [Example 152, 10-Hydrazono-7-isopropyl-9b,10-dihydro-4bH-benzo[d]indeno[1,2-b]furan-4b,9b-diol]",0.9,10.5
"CO[C@@]12C(=O)c3ccccc3[C@]1(O)Oc1cc(C(C)C)ccc12 [Example 98, (4bS,9bS)-4b-Hydroxy-7-isopropyl-9b-methoxy-4bH-indeno[1,2-b]benzofuran-10(9bH)-one]",7.8,
"CC(C)c1ccc2c(c1)OC1(O)c3ccccc3C(C)C21O (stereo not drawn) [Example 136, 7-Isopropyl-10-methyl-9b,10-dihydro-4bH-indeno[1,2-b]benzofuran-4b,9b-diol]",7.8,
"Cc1cc(C)n2ncc(C(=O)NC34C(=O)c5c(N)cccc5C3(O)Oc3cc(C(C)C)ccc34)c2n1 (stereo not drawn) [Example 282, N-(1-Amino-4b-hydroxy-7-isopropyl-10-oxo-9b,10-dihydro-4bH-indeno[1,2-b]benzofuran-9b-yl)-5,7-dimethylpyrazolo[1,5-a]pyrimidine-3-carboxamide]",6.78,> 10
"CC(C)c1ccc2c(c1)OC1(O)c3ccccc3C(=O)C21NC(=O)c1cnnc2ccccc12 (stereo not drawn) [Example 239, N-(4b-hydroxy-7-isopropyl-10-oxo-9b,10-dihydro-4bH-benzo[d]indeno[1,2-b]furan-9b-yl)cinnoline-4-carboxamide]",> 50,> 10
"COc1cc(C(=O)NC23C(=O)c4c(N)cccc4C2(O)Oc2cc(C(C)C)ccc23)nc2ccccc12 (stereo not drawn) [Example 247, N-(1-Amino-4b-hydroxy-7-isopropyl-10-oxo-9b,10-dihydro-4bH-benzo[d]indeno[1,2-b]furan-9b-yl)-4-methoxyquinoline-2-carboxamide]",20,> 10
"CC(C)c1ccc2c(c1)OC1(O)c3cccc(N)c3C(=O)C21NC(=O)c1cc(C(C)C)nc2c1cnn2C(C)C (stereo not drawn) [Example 284, N-(1-Amino-4b-hydroxy-7-isopropyl-10-oxo-9b,10-dihydro-4bH-indeno[1,2-b]benzofuran-9b-yl)-1,6-diisopropyl-1H-pyrazolo[3,4-b]pyridine-4-carboxamide]",4.56,3.71
CC(=O)NC12Oc3cc(C(C)C)ccc3C1(NC(C)=O)C(=O)c1ccccc12 (stereo not drawn) [Example 119],38.2,
"CC(C)c1ccc2c(c1)OC1(O)c3cccc(N(C)C)c3C(=O)C21O (stereo not drawn) [Example 151, 1-(Dimethylamino)-4b,9b-dihydroxy-7-isopropyl-4bH-benzo[d]indeno[1,2-b]-furan-10(9bH)-one]",1.52,
"CC(C)c1ccc2c(c1)OC1(O)c3cccnc3C(=O)C21O (stereo not drawn) [Example 126, 4b,9b-Dihydroxy-7-isopropyl-4bH-benzofuro[2′,3′:3,4]cyclopenta[1,2-b]pyridin-10(9bH)-one]",47.1,
"CC(=O)Nc1ccc([N+](=O)[O-])c2c1C(=O)C1(NC(C)=O)c3ccc(C(C)C)cc3OC21OC(C)=O (stereo not drawn) [Example 110, Acetic acid 1,9b-bis-acetylamino-7-isopropyl-4-nitro-10-oxo-9b,10-dihydro-5-oxa-indeno[2,1-a]inden-4b-yl ester]",14.4,
"COc1ccc(CN2CCN(c3cccc4c3C(=O)C3(O)c5ccc(C(C)C)cc5OC43O)CC2)cc1 (stereo not drawn) [Example 149, 4b,9b-Dihydroxy-7-isopropyl-1-(4-(4-methoxybenzyl)piperazin-1-yl)-4bH-benzo[d]indeno[1,2-b]furan-10(9bH)-one]",8.48,
